Source: patent US20200215065A1, “COMPOSITIONS AND METHOD FOR TREATING PULMONARY HYPERTENSION” (THE REGENTS OF THE UNIVERSITY OF COLORADO, a body corporate, priority 2017, published 2020)
≈ marks a conversion by molar mass, not a printed value.

Experiments:
[1] = test system: hypoxic pulmonary vasoconstriction (HPV) response; test: Acute hypoxic rat model: pulmonary (PAP) and systemic (MAP) arterial pressure after treatment; format: in vivo
Experimental: Surgical procedures and hemodynamic measurements: Rats were anesthetized by intramuscular injection with ketamine/xylazine mixture (75 and 6 mg/kg, respectively). The ventral neck was shaved and a 2 cm incision was made in the right ventral neck where the jugular vein and right carotid artery were isolated via blunt dissection. A polyethylene (PE-50) catheter was introduced into the right carotid to measure systemic blood pressure. A polyvinyl (PV-1) catheter was inserted into the jugular vein and threaded through the right atrium, right ventricle, and into the lumen of the main pulmonary artery to obtain pulmonary arterial pressure. Fluid filled catheters were connected to pressure transducers and monitored continuously with the MP150 data acquisition system (BioPAC Systems; Goleta, Calif.). Blood pressures were recorded every two minutes for data analysis.
After completion of catheter placements and instrumentation for hemodynamic measurements, a 1 cm incision was made above the trachea, and the trachea was isolated by blunt dissection. A tracheotomy was performed approximately 4 mm above the carina and an endotracheal tube specially designed for rats was inserted such that the end of the tube was placed roughly 2 mm distal from the carina. This placement allowed the tip of a Microsprayer® attached to the FMJ-250 syringe (Penn-Century; Philadelphia, Pa.) to protrude approximately 1 mm from the trachea tube and deliver aerosolized emulsion to both right and left lung periphery (FIG. 1A).
Testing efficacy of intrapulmonary delivery of ambrisentan: following instrumentation and tracheotomy, anesthetized rats were placed in a specially designed Plexiglas box built to accommodate exteriorized catheters for completion of the study protocol (depicted graphically in FIG. 1B). Baseline PAP and mean systemic arterial pressure (MAP) were recorded. Next, rats were switched from breathing room air to a hypoxic gas mixture for 10 minutes. Acute hypoxia was induced in rats by exposure to 13% O2 (room air/nitrogen dilution; FIG. 1A). […] This first hypoxic challenge was followed by 20 minutes of room air breathing. […] During this period of room air breathing, rats were allowed to recover from hypoxia for 10 minutes prior to treatment administration via the Microsprayera Treatments were delivered as a 100-microliter bolus aerosol immediately following emulsification to avoid potential phase separation. Following treatment, rats remained breathing room air for an additional 10 minutes to allow drug absorption before being exposed to a second 10-minute hypoxic challenge. Following the second hypoxic challenge, rats returned to breathing room air and blood pressures were monitored for 15 minutes before animals were euthanized with intravenous injection of a euthanasia agent.
Intravenous infusion: As a reference to aid in understanding the response of intrapulmonary delivery of ambrisentan, an additional treatment group for intravenous (IV) infusion of ambrisentan was also investigated (5 mg/kg; 0.5 mL saline). […]
This study was conducted to test the use and efficacy of a water-in-fluorocarbon emulsion of this disclosure to encapsulate ambrisentan or sodium nitrite for intrapulmonary drug delivery. An acute hypoxic rat model was used, and pulmonary and systemic arterial pressure were recorded to determine efficacy of the drug delivery system for treatment of the acute hypoxic pulmonary vasoconstrictive response. […]

[2] = Solubility of ambrisentan in PBS; format: physicochemical; conditions: pH 7.8, aqueous buffer, pH raised to 7.8
From the text: The aqueous solution of ambrisentan was then mixed with Krytox and PFOB and emulsified as previously described.

SMILES | pulmonary arterial pressure compared to the empty emulsion ([1]; acute hypoxia, intrapulmonary emulsion, 0.1 mg/kg) | adverse effects (systemic arterial pressure during acute hypoxia) ([1]; intrapulmonary emulsion) | mean pulmonary arterial pressure when exposed to acute hypoxia ([1]; intrapulmonary emulsion, high dose 0.5 mg/kg) | MAP during the second hypoxic challenge ([1]; in vivo) | adverse effects (systemic arterial pressure during acute hypoxia) ([1]; in vivo) | solubility [2]
O=NO [sodium nitrite] | did not significantly change | no adverse effects were observed | significantly reduced |  |  | 
COC(c1ccccc1)(c1ccccc1)[C@H](Oc1nc(C)cc(C)n1)C(=O)O [ambrisentan] |  |  |  | did not further reduce | no adverse effects were observed | ~100 mg/mL (≈ 264 mM)
